# In patent publication US6750244B2, “Compounds active at a novel site on receptor-operated calcium channels useful for treatment of neurological disorders and diseases” (NPS Pharmaceuticals, Inc., priority 1993, dated 2004):
# Where two headings read alike, the source gives them in different places.
# Legend:
# NMDA receptor [1] = test: Inhibition of NMDA/glycine-induced increases in intracellular calcium in cultured rat cerebellar granule cells (RCGC); assay type: cell-based; conditions: NMDA/glycine-induced increases in intracellular calcium, cultured rat cerebellar granule cells; read-out: IC50 (μM) vs. NMDA
# [2] = molecular target: NMDA receptor-ionophore complex (site labeled by [3H]MK-801); test: Inhibition of [3H]MK-801 binding in rat cortical/hippocampal washed membrane preparations; conditions: read-out: IC50 (μM) vs. [3H]MK-801; rat cortical/hippocampal washed membranes
# L-type calcium channel = tested on: T1, L-type calcium channel; test: Inhibition of KCl depolarization-induced increases in intracellular calcium in cultured rat cerebellar granule cells; assay type: cell-based; conditions: cultured rat cerebellar granule cells; read-out: L-type calcium channel: estimated IC50, KCl depolarization-induced increases in intracellular calcium
# T1 construct: L-type calcium channel: estimated IC50, KCl depolarization-induced increases in intracellular calcium; other: cultured
# From the text: The ability of arylalkylamines to inhibit dihydropyridine-sensitive Ca^2+ channels was examined in cerebellar granule cells and a rat aortic smooth muscle cell line, A7r5 cells.
# [3] = tested on: delayed rectifier potassium channel; test: Inhibition of delayed rectifier potassium channel in cultured N1E-115 neuroblastoma cells; assay type: cell-based; conditions: read-out: Delayed rectifier potassium channel: estimated IC50
# [4] = tested on: central muscarinic cholinergic receptor; assay type: binding, rat
# dopamine uptake site = molecular target: T2, dopamine uptake site (Cavia porcellus, UniProt H0WCX4); test: Dopamine uptake binding assay: [3H]WIN-35,428 binding to guinea pig striatal membranes
# T2 construct: from tissue; host or cells: guinea pig striatal membranes (per the assay title)
# [5] = molecular target: T3, norepinephrine uptake site (Rattus norvegicus, UniProt Q63380); test: Norepinephrine uptake binding assay: [3H]desipramine binding to rat cortical membranes
# T3 construct: from tissue; host or cells: rat cortical membranes (per the assay title)
# serotonin uptake site = molecular target: T4, serotonin uptake site (Rattus norvegicus, UniProt P31652); test: Serotonin uptake binding assay: [3H]citalopram binding to rat forebrain membranes
# T4 construct: from tissue; host or cells: rat forebrain membranes (per the assay title)
# NMDA receptor [6] = conditions: rat hippocampal slices
# Description: Glutamate-mediated transmission at synapses of Schaffer collateral fibers and CA1 pyramidal cells was measured in slices of rat brain containing the hippocampus. This assay measures electrophysiologically the postsynaptic depolarization caused by the presynaptic release of glutamate, and can readily distinguish synaptic transmission mediated by NMDA or AMPA receptors.
# induction of LTP = tested on: induction of LTP; design: species or system rat; conditions: at 100 μM
# permanent focal ischemia = test: Permanent focal cerebral ischemia (middle cerebral artery occlusion, suture); assay type: in vivo, rat; conditions: 1 mg/kg i.p. at 30 min and again 4 hr post-occlusion
# Description: In the second study of focal cerebral ischemia in the rat, the middle cerebral artery was permanently occluded by passing a small piece of suture thread through the carotid artery to the region of the middle cerebral artery. Core body temperature was maintained at 37° C. Compound 4, 10 mg/kg i.p. administered immediately after the onset of the ischemic event, produced a statistically significant reduction in the volume of the brain infarct (20%) recorded 24 hr later.
# focal ischemia = test: Photothrombotic (Rose Bengal) model of focal cerebral ischemia; assay type: in vivo, rat; conditions: 10 mg/kg i.p. at 15 min, 3 hr, and again 6 hr post-occlusion
# From the text: In a third model of focal cerebral ischemia in the rat, an ischemic infarct was produced by a photothrombotic method using the dye Rose Bengal.
# temporary focal ischemia = test: Temporary focal cerebral ischemia (middle cerebral artery occlusion, suture withdrawn after 2 hr); assay type: in vivo, rat; conditions: two doses of 1 mg/kg i.p.
# Description: In a fourth model of focal cerebral ischemia in the rat, the middle cerebral artery was temporarily occluded by passing a small piece of suture thread through the carotid artery to the region of the middle cerebral artery. The suture thread was withdrawn after an ischemic period of 2 hr. Core body temperature was maintained at 37° C. […]
# sound-induced seizures = test: Sound-induced seizures in Frings mice (reflex epilepsy); assay type: in vivo; conditions: Mus musculus, Frings mice
# [7] = tested on: maximal electroshock-induced seizures; test: Maximal electroshock-induced seizures in mice; assay type: in vivo; conditions: mice; for ED50: Mus musculus, ip
# [8] = tested on: maximal electroshock-induced seizures; test: Maximal electroshock-induced seizures in rats; assay type: in vivo; conditions: Rattus norvegicus, read-out: ED50, maximal electroshock-induced seizures
# seizure threshold = test: i.v. Metrazol test (seizure threshold) in mice; assay type: in vivo; conditions: 10 mg/kg i.p.
# [9] = tested on: acetic acid-induced writhing; assay type: in vivo, mice; conditions: 10 mg/kg i.p.
# thermal nociception [10] = assay type: in vivo, rats; conditions: 25 mg/kg i.p.
# Description: In these experiments, a 52° C. hot plate was used as the nociceptive stimulus.
# thermal nociception [11] = assay type: in vivo, rats; conditions: 25 mg/kg i.p.; remark: listed apart in the source
# Description: In this standard assay, the thermal nociceptive stimulus was 52° C. warm water with the latency to tail flick or withdrawal taken as the endpoint.
# [12] = tested on: formalin-induced flinching; assay type: in vivo, Sprague-Dawley rats; conditions: 10 mg/kg i.p.
# in vivo [13] = conditions: mouse, in vivo, ip
# Description: (§1) In this assay, Frings and CF1 mice were injected with test compound and placed on a knurled rod which rotated at a speed of 6 rpm. The ability of the mice to maintain equilibrium for long periods of time was determined; those mice that were unable to maintain equilibrium on the rotorod for 1 min in each of 3 trials were considered impaired.
# motor performance = test: Acute motor impairment (rotorod) in mice; conditions: for TD50 (motor impairment): Frings mice
# Description: as §1
# [14] = tested on: PCP-like discriminative stimulus effects; assay type: in vivo, rats; conditions: i.p., rats
# From the text: In this assay, rats who have been trained to lever press for food reinforcement must select which of two levers in their cages is correct. The only stimulus they hive for selecting the correct lever is their ability to detect whether they received a PCP or vehicle injection After about two months of training, rats become very good at discriminating PCP from vehicle injections and can then be tested with other drugs to determine if they are discriminated as PCP. When tested in this procedure, other drugs which are known to produce a PCP-like intoxication substitute for PCP. These drugs include various PCP analogs such as ketamine and the noncompetitive NMDA receptor antagonist, MK-801.
# [15] = tested on: mean arterial blood pressure
# [16] = Motor toxicity (TD50) in rats; conditions: rat, in vivo, po
# behavior [17] = test: Behavioral effects in conscious beagle dogs
# behavior [18] = test: Behavioral effects in conscious male NMRI mice
# [19] = tested on: mean arterial pressure, heart rate, ECG; test: Cardiovascular activity in conscious beagle dogs
# behavior [20] = test: Behavioral effects in conscious male Wistar rats
# focal ischemic stroke = test: Rat model of focal ischemic stroke (vessel occlusion); assay type: in vivo, rats; conditions: i.p. 2 mg/kg 30 min prior to vessel occlusion and 2 mg/kg 3 hr post-occlusion
# in vivo [21] = conditions: rat, po
# GluR1 [22] = molecular target: T5, GluR1 (Rattus norvegicus, UniProt P19490); conditions: cited from earlier work
# T5 construct: host or cells: Xenopus oocytes
# GluR3 = molecular target: T6, GluR3 (Rattus norvegicus, UniProt P19492); conditions: cited from earlier work
# T6 construct: host or cells: Xenopus oocytes
# NMDA receptors = conditions: read-out: IC50, NMDA-induced responses; cited from earlier work
# kainate receptors = conditions: read-out: IC50, kainate-induced responses; cited from earlier work
# NMDAR1 = molecular target: T7, NMDAR1 (UniProt A7XY94+P35439); conditions: cited from earlier work
# T7 construct: host or cells: Xenopus oocytes
# GluR1 [23] = molecular target: T5, GluR1; conditions: cited from earlier work; remark: listed apart in the source
# GluR1+GluR2 = molecular target: T8, GluR1+GluR2 (Rattus norvegicus, UniProt P19490+P19491, Q607R); conditions: cited from earlier work
# T8 construct: host or cells: Xenopus oocytes
# [24] = tested on: muscle relaxation and anesthesia; conditions: intrathecal administration; cited from earlier work
# [25] = 3 mg/kg i.v. (60 sec bolus injection)
# [26] = 10 mg/kg i.v. (60 sec bolus injection)
# T5 sequence (P19490 19-907): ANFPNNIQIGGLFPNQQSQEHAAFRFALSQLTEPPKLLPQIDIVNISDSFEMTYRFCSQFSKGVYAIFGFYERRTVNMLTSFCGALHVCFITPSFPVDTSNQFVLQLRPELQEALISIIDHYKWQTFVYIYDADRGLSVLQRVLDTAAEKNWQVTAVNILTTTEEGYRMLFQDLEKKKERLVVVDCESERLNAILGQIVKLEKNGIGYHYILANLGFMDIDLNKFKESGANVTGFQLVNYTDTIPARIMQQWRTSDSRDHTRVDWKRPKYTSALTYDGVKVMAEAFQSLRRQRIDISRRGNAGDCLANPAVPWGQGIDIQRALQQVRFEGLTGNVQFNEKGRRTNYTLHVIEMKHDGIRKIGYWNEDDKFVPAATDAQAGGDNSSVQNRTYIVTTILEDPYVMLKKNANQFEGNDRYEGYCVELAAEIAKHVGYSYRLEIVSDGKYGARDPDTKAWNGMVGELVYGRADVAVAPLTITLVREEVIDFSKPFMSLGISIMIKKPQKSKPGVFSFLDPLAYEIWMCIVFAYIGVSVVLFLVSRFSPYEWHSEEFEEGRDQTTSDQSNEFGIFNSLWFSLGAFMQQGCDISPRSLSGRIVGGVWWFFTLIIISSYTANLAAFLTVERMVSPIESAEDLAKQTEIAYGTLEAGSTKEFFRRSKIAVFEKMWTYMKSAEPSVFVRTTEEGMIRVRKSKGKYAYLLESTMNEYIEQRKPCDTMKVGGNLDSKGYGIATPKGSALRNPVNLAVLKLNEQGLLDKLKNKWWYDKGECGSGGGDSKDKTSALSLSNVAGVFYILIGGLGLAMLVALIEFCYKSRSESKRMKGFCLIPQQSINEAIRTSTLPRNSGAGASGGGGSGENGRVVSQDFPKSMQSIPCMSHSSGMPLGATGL
# T2 sequence (H0WCX4 1-619): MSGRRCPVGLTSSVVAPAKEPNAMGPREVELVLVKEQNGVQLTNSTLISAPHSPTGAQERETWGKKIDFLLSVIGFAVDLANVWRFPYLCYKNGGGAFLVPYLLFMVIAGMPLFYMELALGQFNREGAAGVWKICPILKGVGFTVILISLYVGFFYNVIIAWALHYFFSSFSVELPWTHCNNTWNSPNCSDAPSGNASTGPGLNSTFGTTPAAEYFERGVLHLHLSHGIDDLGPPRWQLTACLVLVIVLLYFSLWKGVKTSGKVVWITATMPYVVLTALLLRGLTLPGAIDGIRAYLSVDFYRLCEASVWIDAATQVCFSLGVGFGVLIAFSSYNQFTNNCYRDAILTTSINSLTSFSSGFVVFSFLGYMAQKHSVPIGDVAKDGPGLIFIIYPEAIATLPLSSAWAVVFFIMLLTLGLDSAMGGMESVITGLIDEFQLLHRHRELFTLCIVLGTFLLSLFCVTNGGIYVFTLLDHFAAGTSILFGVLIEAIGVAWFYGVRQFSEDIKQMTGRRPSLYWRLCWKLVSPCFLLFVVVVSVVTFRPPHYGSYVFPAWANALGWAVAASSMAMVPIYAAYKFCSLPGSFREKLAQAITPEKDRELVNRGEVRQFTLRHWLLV
# T4 sequence (P31652 whole entry): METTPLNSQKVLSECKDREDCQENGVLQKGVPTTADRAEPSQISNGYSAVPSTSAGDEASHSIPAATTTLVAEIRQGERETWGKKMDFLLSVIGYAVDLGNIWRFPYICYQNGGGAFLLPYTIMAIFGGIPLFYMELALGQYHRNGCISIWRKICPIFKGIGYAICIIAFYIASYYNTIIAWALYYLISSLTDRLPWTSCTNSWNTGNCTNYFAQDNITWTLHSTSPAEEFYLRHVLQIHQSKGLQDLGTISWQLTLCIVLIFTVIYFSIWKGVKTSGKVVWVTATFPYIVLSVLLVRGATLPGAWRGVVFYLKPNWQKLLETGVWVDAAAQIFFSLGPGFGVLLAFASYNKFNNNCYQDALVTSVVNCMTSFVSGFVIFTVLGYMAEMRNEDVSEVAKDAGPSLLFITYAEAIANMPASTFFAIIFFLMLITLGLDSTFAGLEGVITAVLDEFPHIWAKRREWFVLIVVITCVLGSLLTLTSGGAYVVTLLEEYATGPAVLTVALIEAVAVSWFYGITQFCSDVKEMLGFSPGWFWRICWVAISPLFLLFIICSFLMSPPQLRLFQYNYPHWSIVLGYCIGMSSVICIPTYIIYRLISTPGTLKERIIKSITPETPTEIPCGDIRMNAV
# T3 sequence (Q63380 1-617): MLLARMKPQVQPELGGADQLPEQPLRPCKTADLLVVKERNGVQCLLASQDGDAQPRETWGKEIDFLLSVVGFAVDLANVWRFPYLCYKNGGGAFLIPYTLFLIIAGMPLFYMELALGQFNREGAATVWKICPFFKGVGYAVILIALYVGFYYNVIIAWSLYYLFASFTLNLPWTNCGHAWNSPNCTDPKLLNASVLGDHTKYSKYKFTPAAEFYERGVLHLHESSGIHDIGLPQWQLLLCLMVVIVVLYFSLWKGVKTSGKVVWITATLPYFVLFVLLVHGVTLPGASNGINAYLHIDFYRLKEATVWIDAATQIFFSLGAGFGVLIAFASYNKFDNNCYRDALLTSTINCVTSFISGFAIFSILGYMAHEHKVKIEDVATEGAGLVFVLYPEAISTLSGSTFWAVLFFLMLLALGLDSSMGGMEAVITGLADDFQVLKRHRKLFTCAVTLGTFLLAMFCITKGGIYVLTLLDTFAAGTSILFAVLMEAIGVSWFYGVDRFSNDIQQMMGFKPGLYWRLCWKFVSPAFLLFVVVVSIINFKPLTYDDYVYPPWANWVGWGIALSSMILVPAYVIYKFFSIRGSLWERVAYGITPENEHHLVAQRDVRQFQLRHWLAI
# T8 sequence (P19490 19-907): as the sequence (P19490 19-907) above
# T8 sequence (P19491 22-883 Q607R): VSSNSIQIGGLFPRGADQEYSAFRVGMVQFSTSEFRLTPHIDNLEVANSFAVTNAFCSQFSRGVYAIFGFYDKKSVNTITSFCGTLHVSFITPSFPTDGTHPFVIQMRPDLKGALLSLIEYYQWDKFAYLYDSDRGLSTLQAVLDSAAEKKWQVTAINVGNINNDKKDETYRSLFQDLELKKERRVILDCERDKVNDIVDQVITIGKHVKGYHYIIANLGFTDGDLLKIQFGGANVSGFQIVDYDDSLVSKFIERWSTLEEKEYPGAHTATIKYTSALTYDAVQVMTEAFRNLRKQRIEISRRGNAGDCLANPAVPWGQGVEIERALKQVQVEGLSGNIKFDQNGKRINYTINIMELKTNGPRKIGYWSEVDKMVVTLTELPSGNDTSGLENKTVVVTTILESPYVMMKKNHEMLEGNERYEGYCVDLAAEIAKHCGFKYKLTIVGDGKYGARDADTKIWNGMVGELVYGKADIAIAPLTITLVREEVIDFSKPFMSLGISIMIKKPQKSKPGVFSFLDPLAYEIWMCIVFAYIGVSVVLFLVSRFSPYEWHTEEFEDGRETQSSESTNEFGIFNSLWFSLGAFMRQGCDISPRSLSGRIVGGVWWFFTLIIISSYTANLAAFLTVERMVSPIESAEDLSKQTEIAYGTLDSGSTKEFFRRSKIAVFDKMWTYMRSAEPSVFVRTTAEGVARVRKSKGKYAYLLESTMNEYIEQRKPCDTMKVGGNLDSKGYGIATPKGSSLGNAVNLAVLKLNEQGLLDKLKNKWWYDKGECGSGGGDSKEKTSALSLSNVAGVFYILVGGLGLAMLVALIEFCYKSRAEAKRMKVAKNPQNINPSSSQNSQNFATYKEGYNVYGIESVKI
# T6 sequence (P19492 23-888): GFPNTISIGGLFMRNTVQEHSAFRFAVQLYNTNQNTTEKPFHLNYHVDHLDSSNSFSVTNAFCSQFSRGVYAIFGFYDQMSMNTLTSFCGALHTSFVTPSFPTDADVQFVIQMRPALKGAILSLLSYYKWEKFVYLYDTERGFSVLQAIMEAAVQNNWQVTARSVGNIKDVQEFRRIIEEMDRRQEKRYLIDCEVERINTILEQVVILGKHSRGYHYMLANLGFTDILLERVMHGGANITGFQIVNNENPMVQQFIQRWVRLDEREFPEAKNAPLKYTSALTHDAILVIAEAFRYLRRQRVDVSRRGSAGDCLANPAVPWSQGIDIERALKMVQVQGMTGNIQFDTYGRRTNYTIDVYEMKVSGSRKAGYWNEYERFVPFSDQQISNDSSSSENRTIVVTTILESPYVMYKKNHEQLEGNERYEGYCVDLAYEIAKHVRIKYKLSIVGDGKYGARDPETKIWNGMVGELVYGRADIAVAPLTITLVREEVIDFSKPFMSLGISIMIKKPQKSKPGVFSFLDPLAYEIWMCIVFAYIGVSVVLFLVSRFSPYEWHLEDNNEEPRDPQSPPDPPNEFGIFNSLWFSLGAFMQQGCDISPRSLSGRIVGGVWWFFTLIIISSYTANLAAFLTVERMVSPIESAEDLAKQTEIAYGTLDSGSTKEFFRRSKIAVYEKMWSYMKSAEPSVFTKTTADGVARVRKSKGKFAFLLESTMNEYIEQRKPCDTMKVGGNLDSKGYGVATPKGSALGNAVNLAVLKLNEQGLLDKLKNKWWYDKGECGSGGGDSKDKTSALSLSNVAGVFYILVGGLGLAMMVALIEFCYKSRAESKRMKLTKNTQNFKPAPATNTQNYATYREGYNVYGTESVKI
smiles,measurement,setting,value
"NCCC(c1cccc(F)c1)c1cccc(F)c1 [Compound 20, 3,3-bis(3-fluorophenyl)-1-propylamine]",IC50,NMDA receptor [1],0.07 µM
same,IC50,[2],0.252 µM
same,IC50,L-type calcium channel,2200 nM
same,IC50,[3],1000 to 10000 nM
same,Central muscarinic cholinergic receptor: percent block of [3H]QNB binding,[4]; at 0.1 μM,8% at
same,Central muscarinic cholinergic receptor: percent block of [3H]QNB binding,[4]; at 10 μM,0.190% at
same,"Monoamine uptake binding assays: dopamine uptake binding assay, percent block",dopamine uptake site; at 0.1 μM,6% at
same,"Monoamine uptake binding assays: dopamine uptake binding assay, percent block",dopamine uptake site; at 10 μM,0.1^f81% at
same,"Monoamine uptake binding assays: norepinephrine uptake binding assay, percent block",[5]; at 0.1 μM,5% at
same,"Monoamine uptake binding assays: norepinephrine uptake binding assay, percent block",[5]; at 10 μM,0.1^g58% at
same,"Monoamine uptake binding assays: serotonin uptake binding assay, percent block",serotonin uptake site; at 0.1 μM,10^g28% at
same,"Monoamine uptake binding assays: serotonin uptake binding assay, percent block",serotonin uptake site; at 10 μM,0.1^h94% at
same,Suppression of NMDA Receptor-Mediated Synaptic Transmission (concentration which suppresses),NMDA receptor [6],30 to 300 µM
same,LTP Assay (block of the induction of LTP),induction of LTP,block at 100
same,reduction in the infarct volume,permanent focal ischemia,24%
same,reduction in the infarct volume,focal ischemia,50%
same,reduction in the infarct volume,temporary focal ischemia; 2 hr after occlusion (time of reperfusion) and 6 hr later,43%
same,reduction in the infarct volume,temporary focal ischemia; immediately after middle cerebral artery occlusion and 6 hr later,51%
same,ED50,sound-induced seizures; ip,2.1 mg/kg
same,ED50,sound-induced seizures; oral,9.7 mg/kg
same,ED50,[7],20.1 mg/kg
same,no significant anticonvulsant activity against maximal electroshock-induced seizures at doses up to,[7]; oral (p.o.),up to 30 mg/kg
same,ED50,[8]; po,33.6 mg/kg
same,"seizure threshold, i.v. Metrazol test",seizure threshold,an increase in seizure threshold
same,analgesic activity against acetic acid-induced abdominal writhing,[9],"significant analgesic activity, not blocked by naloxone"
same,"analgesic activity, rat 52° C. hot plate test",thermal nociception [10],no significant analgesic activity
same,"analgesic activity, rat 48° C. tail flick test",thermal nociception [11],no significant analgesic activity
same,"analgesic activity, rat formalin test",[12],"significant analgesic activity, not blocked by the opiate receptor antagonist naloxone"
same,TD50,in vivo [13],20.6 mg/kg
same,TD50 (motor impairment),motor performance; i.p.,19.9 mg/kg
same,TD50 (motor impairment),motor performance; oral,21.8 mg/kg
same,motor impairment,"motor performance; mice, 30 mg/kg p.o.",motor impairment
same,no generalization to PCP at doses up to the behaviorally active dose of,[14],≤ 10 mg/kg
same,no significant cardiovascular activity in anesthetized rats at doses up to,[15]; i.p.,≤ 10 mg/kg
same,TD50,[16],55.9 mg/kg
same,behavioral effects,behavior [17]; [25],"increased motor activity, agitation and anxiousness, slight tremors, licking of the mouth, whining, and urination"
same,behavioral effects,behavior [17]; [26],"dilated pupils, whole body tremors, incoordination, licking of the mouth, salivation, panting, rapid blinking of the eyes, whining, anxiousness, seizures, and death"
same,behavioral effects,behavior [18]; 8 mg/kg i.p.,excitation and increased reactivity to touch
same,behavioral effects,behavior [18]; 64 mg/kg i.p.,convulsions and death
same,behavioral effects,behavior [18]; 2 and 4 mg/kg i.p.,no behavioral effects
same,behavioral effects,behavior [18]; 16 and 32 mg/kg i.p.,"excitation, Straub tail, tremor, stereotypies, hypothermia, and mydriasis"
same,behavioral effects,behavior [18]; 128 and 256 mg/kg i.p.,convulsions and death
same,cardiovascular activity,[19]; 0.3 mg/kg i.v. (60 sec bolus injection),no significant cardiovascular activity
same,cardiovascular activity,[19]; 1 mg/kg i.v. (60 sec bolus injection),no significant cardiovascular activity
same,heart rate,[19]; [25],transient increases in mean arterial pressure and heart rate
same,mean arterial pressure,[19]; [25],transient increases in mean arterial pressure and heart rate
same,heart rate,[19]; [26],larger magnitude and longer duration effects
same,mean arterial pressure,[19]; [26],larger magnitude and longer duration effects
same,behavioral effects,behavior [20]; 2 mg/kg i.v.,no behavioral effects
same,behavioral effects,behavior [20]; 32 mg/kg i.v.,"Straub tail, convulsions, and death"
same,behavioral effects,behavior [20]; doses ranging from 4 to 16 mg/kg i.v.,"excitation, stereotypies, increased reactivity to touch, increased muscle tone, and tremor"
"COc1ccccc1C(CCN)c1cccc(F)c1 (stereo not shown) [Compound 24, 3-(3-fluorophenyl)-3-(2-methoxyphenyl)-1-propylamine]",IC50,NMDA receptor [1],0.206 µM
same,IC50,[2],0.591 µM
same,ED50,sound-induced seizures; ip,5 mg/kg
same,ED50,"[8]; rats, oral",46 mg/kg
same,TD50,in vivo [13]; Frings,16 mg/kg
same,neuroprotectant activity in a rat model of focal ischemic stroke,focal ischemic stroke,no significant neuroprotectant activity
same,no significant cardiovascular activity in anesthetized rats at doses up to,[15]; i.v.,up to 10 mg/kg
same,TD50,in vivo [21],51 mg/kg
"COc1cccc(C(CCN)c2cccc(F)c2)c1 (stereo not shown) [Compound 25, 3-(3-fluorophenyl)-3-(3-methoxyphenyl)-1-propylamine]",IC50,NMDA receptor [1],0.279 µM
same,IC50,[2],0.871 µM
same,ED50,[7],12.5 mg/kg
same,ED50,"[8]; rats, oral",46.4 mg/kg
same,TD50,in vivo [13],32.2 mg/kg
same,TD50,in vivo [21],163 to 326 mg/kg
NCCCNCCCCNCCC(=O)NCCCCCNC(=O)[C@H](CC(N)=O)NC(=O)Cc1ccc(O)cc1O [JSTX-3],IC50,GluR1 [22],40 nM
same,IC50,GluR3,30 nM
CCCC(=O)N[C@@H](Cc1ccc(O)cc1)C(=O)NCCCNCCCCNCCCN [PhTX-343],IC50,NMDA receptors,2500 nM
same,IC50,kainate receptors,120 nM
same,IC50,NMDAR1,2190 nM
same,IC50,GluR1 [23],2800 nM
same,IC50,GluR1+GluR2,270000 nM
NCCCNCCCCNCCCNCCCN(O)CCCNC(=O)Cc1c[nH]c2ccccc12 [agatoxin-489],muscle relaxation and anesthesia,[24],not
